Experimental data: the NIST ThermoML archive (doi:10.1016/j.jct.2012.05.009)

Assay: mn = molality of the nth substance listed, in mol/kg
Conditions: 101 kPa, Liquid, Vibrating tube method

CC(=O)CCCCn1c(=O)c2c(ncn2C)n(C)c1=O [3,7-dimethyl-1-(5-oxohexyl)-3,7-dihydro-1H-purine-2,6-dione] + O
mass density [kg/m3]
Conditions | m1 = 0.09736 | m1 = 0.0976 | m1 = 0.09842 | m1 = 0.09851 | m1 = 0.1012
293.15 K | 1003.77 | 1003.77 | 1003.81 | 1003.83 | 1003.97
298.15 K | 1002.51 | 1002.51 | 1002.55 | 1002.57 | 1002.7
303.15 K | 1001.02 | 1001.02 | 1001.06 | 1001.08 | 1001.21
308.15 K | 999.319 | 999.32 | 999.356 | 999.381 | 999.508
